This note sets out measurements from patent EP4778933A1 (Chengdu Hyperway Pharmaceuticals Co., Ltd., priority 2023, dated 2025).

Read-outs that look alike come from different tables or passages of the source.

For data set [1], the system named is KRAS G12D-mediated ERK phosphorylation. Briefly: Inhibition of KRAS G12D-mediated ERK phosphorylation in AGS cells (in-cell pERK/GAPDH immunofluorescence). In kind it is cell-based. The settings on record: AGS cells, 3 h incubation; read-out: Inhibitory activity on ERK phosphorylation (IC50) AGS-G12D. As to the method: (§1) Day 1: AGS cells, SW480 cells, NCI H358 cells, HCT116 cells, and KP2 cells were seeded into 384-well cell culture plates and cultured overnight in a 37°C, 5% CO2 incubator.
(§2) Day 2: The compounds were added to the plates using Echo550 and incubated for 3 h in a 37°C, 5% CO2 incubator. Then, cells fixed with paraformaldehyde, permeated with methanol and blocked with a blocking solution were added. Finally, a mixed solution of primary antibodies (rabbit anti pERK, mouse anti GAPDH) was added, and the mixture was incubated overnight at 4°C.
(§3) Day 3: The mixed solution of primary antibodies was discarded, and a mixed solution of secondary antibodies (goat anti rabbit 800 CW, goat anti mouse 680 RD) was added. The resulting mixture was incubated at room temperature in the dark. Finally, the cell culture plate was washed with PBST, and then inverted for 1 minute of centrifugation. The fluorescence signal values were read with Odyssey CLx.
(§4) ERK phosphorylation was calculated according to the following formula: [formula] • Negative control: DMSO • Positive control: 10 µM Reference • IC50 value was fitted and calculated by XLFit 5.0 using the parametric formula. • Y = Bottom+(Top-Bottom)/(1+10^((LogIC50-X)*HillSlope)) • X: log value of compound concentration. • Y: average value of relative expression of p-ERK between replicate wells.

The test system of data set [2] is KRAS G12R-mediated ERK phosphorylation. Briefly: Inhibition of KRAS G12R-mediated ERK phosphorylation in KP2 cells. The data set is classed as cell-based. The settings on record: 3 h incubation, read-out: Inhibitory activity on ERK phosphorylation (IC50) KP2-G12R. As to the method:
as §1, §2, §3, §4

For data set [3], the system named is KRAS G12C-mediated ERK phosphorylation. Briefly: Inhibition of KRAS G12C-mediated ERK phosphorylation in NCI H358 cells. In kind it is cell-based. The settings on record: Homo sapiens, 3 h incubation, read-out: Inhibitory activity on ERK phosphorylation (IC50) NCI H358-G12C. As to the method: as §1, §2, §3, §4
The test system of data set [4] is KRAS G13D-mediated ERK phosphorylation. Briefly: Inhibition of KRAS G13D-mediated ERK phosphorylation in HCT116 cells. In kind it is cell-based. As to conditions: Homo sapiens, HCT-116, 3 h incubation, read-out: Inhibitory activity on ERK phosphorylation (IC50) HCT116-G13D. As to the method:
as §1, §2, §3, §4

A short description of data set [5]: In vivo pharmacokinetic test in mice. As to conditions: female BALB/c mice, oral, single dose 30 mg/kg, plasma; 30 mg/kg. As to the method:
(§5) Each test compound was administered orally once to female BALB/c mice for pharmacokinetic study. The test compounds were prepared on the day of administration. The oral administration solvent: 50 mM sodium citrate (pH 5.0) + 10% captisol. The oral administration was conducted in a dose of 30 mg/kg. The animals were fasted for 10-14 h before oral administration, and the feeding was resumed 4 h after administration. Pharmacokinetic samples were collected through the orbit. The collection time points were: 15 min, 30 min, 1 h, 2 h, 4 h, 6 h, 8 h and 24 h after administration. Three whole blood samples were collected at each time point, with a collection volume of about 0.2 mL, and anticoagulated with sodium heparin. After blood samples were collected, they were immediately placed on ice and centrifuged within 1 h to isolate plasma (centrifugation conditions: 8000 rpm, 1 min, 2-8°C). The collected plasma was stored in a -20°C refrigerator before analysis. The concentrations of compounds in the plasma samples were determined using an LC-MS/MS analysis method.

Data set [6] has as its system KRAS G12V-mediated ERK phosphorylation. Briefly: Inhibition of KRAS G12V-mediated ERK phosphorylation in SW480 cells. In kind it is cell-based. The settings on record: 3 h incubation, read-out: Inhibitory activity on ERK phosphorylation (IC50) SW480-G12V. As to the method: as §1, §2, §3, §4
A short description of data set [7]: In vivo pharmacokinetic test in rats. The settings on record: Sprague-Dawley (SD), rat; male rats, oral, single dose 30 mg/kg, plasma. Details: species or system SD Rats. As to the method:
as §5, with “once to male […] rats” for “once to female BALB/c mice”, “male BALB/c rats for pharmacokinetic” for “female BALB/c mice for pharmacokinetic”, “administration. The intravenous administration solvent: 5% DMSO + 10% solutol + 85% saline; and the oral administration” for “administration. The oral administration”, “points were: 5 min (intravenous administration), 15 min,” for “points were: 15 min,”, “analysis method. Table 4: Pharmacokinetic test results of some compounds in SD Rats” for “analysis method.”

The test system of data set [8] is human ovarian cancer RKN mouse xenograft tumors. Briefly: In vivo drug efficacy, RKN subcutaneous xenograft tumor model. Details: species or system Balb/c nude mice. As to conditions: 50 mg/kg, PO. As to the method: A subcutaneous xenograft tumor model of human ovarian cancer RKN (derived from uterine leiomyosarcoma) cells was established in Balb/c nude mice. RKN tumor cells resuspended in Ham's F12 medium were inoculated subcutaneously on the right side of the experimental animals at 5×10^6 + gel/0.1 mL. When the tumor grew to about 150-200 mm^3, 20 animals having relatively uniform tumor volumes were selected for group administration, with a total of 4 groups, 5 animals in each group. On the day of the experiment, the animals were given the corresponding drugs according to the groups. The first group G1 was set as a solvent group, and 50 mM citrate buffer (pH 5.0) + 10% Captisol was given by gavage alone. The second group G2 was given a 50 mM citrate buffer (pH 5.0) + 10% Captisol of compound 21. The third group G3 was given a 50 mM citrate buffer (pH 5.0) + 10% Captisol of compound 26. The fourth group G4 was given a 50mM citrate buffer (pH 5.0) + 10% Captisol of compound 31. Table 7: Study on effect of test substances on animal tumor size in the human ovarian cancer RKN mouse xenograft tumor model
During the experiment, the body weight and tumor size of the animals were measured twice a week, and the clinical symptoms of the animals were observed and recorded every day. Each drug administration was based on the most recent weighing of the animals.
The tumor was measured with a digital vernier caliper to measure the length (a) and width (b). The tumor volume (TV) was calculated using the following formula: TV = a × b^2 /2. [formula]

Another data set deals with RKN (KRAS G12V). Briefly: 3D cell proliferation inhibition test (CellTiter-Glo 3D, 7 days), RKN. In kind it is cell-based. The settings on record: 168 h, read-out: Inhibitory activity on cell proliferation (IC50) RKN (KRAS G12V). As to the method:
(§6) The diluted compounds to be tested were added to 384-well low-adhesion KRAS mutant types (such as GP2D, NCI H358, LoVo, RKN and KP2) of cell culture plates by using a nanoliter pipetting system (LABCYTE, P-0200). Then, the cells were plated and incubated in a 37°C, 5% CO2 incubator for 7 days. Afterward, CellTiter-Glo® 3D reagent was added, and the luminescent values were read by an Envision multifunctional microplate reader (the luminescent signal is proportional to the amount of ATP in the system, and the ATP content directly represents the number of viable cells in the system). Finally, the IC50 values (half-maximal inhibitory concentration) of the compounds were obtained by the XLFIT software using the nonlinear fitting formula.
(§7) • a) The diluted compounds to be tested were added to 384-well low-adhesion KRAS mutant types of cell culture plates by using a nanoliter pipetting system. • b) Cells were seeded into the 384-well plates in a) and then centrifuged at 1000 rpm for 1 min at room temperature, with a final DMSO concentration of compound being 0.5%. The plates were then incubated in a 5% CO2 constant-temperature incubator at 37°C for 7 days. • c) CellTiter-Glo® 3D was added to the 384-well cell culture plates in b), shaken in the dark, and incubated at room temperature. • d) The luminescence values were read by using an Envision multifunctional microplate reader.
(§8) The IC50 (half-maximal inhibitory concentration) values of the compounds were obtained by using XLFIT software according to the following nonlinear fitting formula: Y = Bottom + (Top−Bottom)/(1+10^(∧)((LogIC50−X)×HillSlope)) [formula] • X: log value of compound concentration. • Y: inhibition rate (%) [formula] • Negative control: DMSO. • Positive control: Medium only.

Another data set deals with GP2D (KRASG12D). Briefly: 3D cell proliferation inhibition test (CellTiter-Glo 3D, 7 days), GP2D. The settings on record: 168 h, read-out: Inhibitory activity on cell proliferation (IC50) GP2D (KRASG12D). The data set is classed as cell-based. As to the method:
as §6, §7, §8

As usually defined, the AUC is the area under the concentration-time curve, a measure of exposure. The Cmax is the peak of the concentration-time curve. On to `CC1(O)COCCN(c2nc(OCC34CCCN3C(c3cc(F)c(F)c(F)c3)CC4)nc3c(F)c(-c4ccc(F)c5sc(N)c(C#N)c45)c(Cl)cc23)C1` (single isomer, unassigned) [Example 12, 2-amino-4-[6-chloro-8-fluoro-4-(6-hydroxy-6-methyl-1,4-oxazepan-4-yl)-2-({[3-(3,4,5-trifluorophenyl)-2,3,5,6,7,7a-hexahydro-1H-pyrrolizin-7a-yl]methyl}oxy)quinazolin-7-yl]-7-fluorobenzo[b]thiophene-3-carbonitrile], for which the IC50 was 3.3 nM in data set [1]; 148 nM in data set [2]; 3.1 nM in data set [3]; 63 nM in data set [4]; 2.4 nM in [6]. The compound also had an AUC in [5] of 37427 ng·h/mL. For the same compound, the Cmax in data set [5] is given as 5544 ng/mL.

`CC1(O)COCCN(c2nc(OCC34CCCN3C(c3cc(F)c(F)c(F)c3)CC4)nc3c(F)c(-c4cccc5sc(N)c(C#N)c45)c(Cl)cc23)C1` (single isomer, unassigned) [Example 21, 2-amino-4-[6-chloro-8-fluoro-4-(6-hydroxy-6-methyl-1,4-oxazepan-4-yl)-2-({[3-(3,4,5-trifluorophenyl)-2,3,5,6,7,7a-hexahydro-1H-pyrrolizin-7a-yl]methyl}oxy)quinazolin-7-yl]benzo[b]thiophene-3-carbonitrile]: the IC50 in data set [1] is 4.7 nM; in data set [2], 146 nM; in [3], 2.04 nM; in data set [4] it was 45 nM; with RKN (KRAS G12V), 7.23 nM; with GP2D (KRASG12D), 4.26 nM. Besides, the IC50 in data set [6] (Homo sapiens, SW480, 3 h) amounted to 7.8 nM. In addition, the area under the curve (AUC) in data set [7] is 5290 ng·h/mL; in [5], 30872 ng·h/mL. In addition, the Cmax in data set [7] was 866 ng/mL; in data set [5], 5218 ng/mL. Also, the “inhibitory effects on human ovarian cancer RKN mouse xenograft tumors” value in [8] (BID, 28 days) is on record as “significant inhibitory effects”. Also, the “Tumor volume inhibition rate (TGI)” value in [8] (RKN xenograft, BID × 28, day 28) was determined as 109%.
